Read-outs that look alike come from different tables or passages of the source.
How the values were obtained:
[1] = test system: Amaranthus retroflexus; experiment: In planta growth experiment, A. retroflexus; assay type: in vivo; settings: for Influence on plants: shoots sprayed, 3 mM; for dry weight: six days after treatment, both experiments
From the text: Seeds of Amaranthus retroflexus L. (Herbiseed, Twyford, UK) and Brassica napus L. cv. Mozart (Norddeutsche Pflanzenzucht Hans-Georg Lembke KG, Holtsee, Germany) were sown in vermiculite for germination. When cotyledons were fully expanded, seedlings were transplanted into plastic pots with a volume of 0.230 L filled with a substrate containing 50% bottom ash (0–4 mm), 30% peat and 20% pumice gravel (0–4 mm). Plants were watered every other day with 0.03% Hakaphos® Grün solution (Compo Expert GmbH, Münster, Germany) by sub-irrigation. Plants were grown in a climate chamber at 22 °C/20 °C day/night temperature and a day/night length of 16 h/8 h. Relative humidity was adjusted to 70% and light intensity was 320 μmol m^−2 s^−1 PAR (Photosynthetically Active Radiation) at plant level.
When seedlings reached the two-leaf growth stage, plant shoots were sprayed from the top with treatment solutions using spray bottles with a spraying angle of 35° (10 ml, neoLab Migge Laborbedarf-Vertriebs GmbH, Heidelberg, Germany). Treatment solutions were applied from a height of 8.5 cm above the pots. Each pot was sprayed once with a solution volume of 0.135 ml. Treatment solutions contained 2.4% (v/v) DMSO (dimethylsulfoxide, Duchefa Biochemie, Haarlem, the Netherlands), 0.1% (v/v) Tween® and the respective compound at a concentration of 3 mM. The control treatment contained 2.4% (v/v) DMSO, and 0.1% (v/v) Tween20. Further details are given in the Supplementary Information. […]
Experimental design and assessments of in planta experiments
We tested eleven compounds in a first experiment. In a follow-up experiment we tested selected […]
chalcone. Each treatment was repeated 12 times, except for oilseed rape in the second experiment (n=10). Pots were arranged in the growth chamber according to a fully randomized design. Initial growth of the second leaf of A. retroflexus plants was monitored by aquiring images of each plant from above from day zero to day two after treatment. Images were taken […]
from a fixed distance at 90° view angle using the camera Canon EOS 70D equipped with a Canon EF 14 mm/2.8 L II USM lens. Leaf area of single leaves was measured using the ImageJ software31, by drawing the leaf contours using a drawing tablet (Cintiq 22HD, Wacom Europe GmbH, Krefeld, Germany). Conversion of pixel to cm was achieved by using a target of known size inside the image. Six days after the treatment, half of the plants were harvested. Leaf area was assessed using a leaf area meter (LI3100C Area Meter, LI-Cor, Lincoln, Nebraska, USA) and samples were oven-dried at 65°C for seven days to obtain dry weight . Thirteen days after the treatment, this procedure was repeated with the second half of plants.
Chlorophyll fluorescence measurements […]
6 mm leaf discs were cut out of the second leaf and immediately placed into 96-well-plates filled with 300 µL 0.125 % Hoagland’s solution with 1 mM MES-KOH (MES-monohydrate, Merck, Darmstadt, Germany) buffered to a pH of 6.5. The treatment solution contained 1.6 % (v/v) DMSO, 0.1 % (v/v) Tween® 20 and 2',3',4',3,4-Pentahydroxychalcone at a concentration of 2 mM. The control treatment contained 1.6 % (v/v) DMSO, 0.1 % (v/v) Tween® 20. Each leaf disc was treated with 1.5 µL solution placed on top of the leaf discs. Plates were sealed with Parafilm and placed into a climate cabinet with 12h/12h day/night-length and a temperature of 22°C at a light intensity of 130 µmol m-2 s-1. 96 hours after treatment, chlorophyll fluorescence measurements were performed on leaf discs using an Imaging PAM M-Series fluorescence camera (Heinz Walz GmbH, Effeltrich, Germany). Leaf discs were dark adapted for 30 minutes, minimum and maximum chlorophyll fluorescence were obtained and leaf discs were illuminated for 30 minutes

[2] = test system: Corynebacterium glutamicum ATCC13032; experiment: Bacterial growth in microscale cultivation, C. glutamicum; assay type: cell-based; settings: for activity at 4 µM / activity at 40 µM / activity at 120 µM / activity at 400 µM / activity at 0.3 µM / activity at 3 µM / activity at 30 µM / activity at 0.1 µM / activity at 1 µM / activity at 10 µM: Corynebacterium glutamicum; for activity at 4 µM / activity at 40 µM / activity at 120 µM / activity at 400 µM / Lag Phase / activity at 0.1 µM / activity at 1 µM / activity at 10 µM: relative to control
Procedure: The following bacteria were cultivated in the presence of trans-chalcone derived inhibitors: Corynebacterium glutamicum ATCC13032[43], Escherichia coli K-12 MG1655[44], Pseudomonas putida KT2440[45], and Bacillus subtilis 168[46]. The growth of these bacteria was monitored in flower-well plates shaken at 1200 rpm as backscatter at 620 nm (gain 20) using a BioLector® microscale cultivation system (m2p labs, Baesweiler, Germany). For further experimental details please refer to the Supplementary Information.
medium or the appropriate minimal medium and shaken at 140 rpm overnight. For inoculation of
the main culture, cells equivalent to an optical density at 600 nm of 0.5 (C. glutamicum, E. coli,
and P. putida) or 0.25 (B. subtilis) in 800 µL medium were washed and resuspended in fresh
media. Inhibitor substances were dissolved in DMSO and added to the media to a final
Since the least polar trans-chalcone and 2’-hydroxychalcone precipitated in the growth media at
the highest concentrations, the maximal concentration of these compounds was reduced to 400
µM and 100 µM, respectively. The final backscatter at 620 nm, the growth rate (h-1), and the
duration of the lag phase of all cultures were determined in a BioLector microscale cultivation
system in comparison to negative controls supplemented with the solvent DMSO. A longer lag

For `O=C(/C=C/c1ccc(O)cc1)c1ccccc1O` [Compound 3, 2′,4-Dihydroxychalcone], the Influence on plants [1] was “No”, the activity at 4 µM ([2]; ATCC13032, complex medium, 4 µM, read-out: Final Backscatter) was 100% and the activity at 4 µM ([2]; ATCC13032, complex medium, 4 µM, read-out: Growth rate) was 101%. For the same molecule, the activity at 40 µM ([2]; ATCC13032, complex medium, 40 µM, read-out: Final Backscatter) was 103%, the activity at 40 µM ([2]; ATCC13032, complex medium, 40 µM, read-out: Growth rate) was 99.1% and the activity at 120 µM ([2]; ATCC13032, complex medium, 120 µM, read-out: Final Backscatter) was 111%. It also gave an activity at 120 µM ([2]; ATCC13032, complex medium, 120 µM, read-out: Growth rate) of 107%, an activity at 400 µM ([2]; ATCC13032, complex medium, 400 µM, read-out: Final Backscatter) of 112% and an activity at 400 µM ([2]; ATCC13032, complex medium, 400 µM, read-out: Growth rate) of 93.9%. It also gave an activity at 4 µM ([2]; ATCC13032, minimal medium, 4 µM, read-out: Final Backscatter) of 102%, an activity at 4 µM ([2]; ATCC13032, minimal medium, 4 µM, read-out: Growth rate) of 99.6% and an activity at 40 µM ([2]; ATCC13032, minimal medium, 40 µM, read-out: Final Backscatter) of 103%. The activity at 40 µM ([2]; ATCC13032, minimal medium, 40 µM, read-out: Growth rate) was 99.5%, the activity at 120 µM ([2]; ATCC13032, minimal medium, 120 µM, read-out: Final Backscatter) was 102% and the activity at 120 µM ([2]; ATCC13032, minimal medium, 120 µM, read-out: Growth rate) was 96.7%. The activity at 400 µM ([2]; ATCC13032, minimal medium, 400 µM, read-out: Final Backscatter) was 106%, the activity at 400 µM ([2]; ATCC13032, minimal medium, 400 µM, read-out: Growth rate) was 81.2% and the “Lag Phase” value ([2]; complex medium, 4 µM) was 93,2%. The “Lag Phase” value ([2]; complex medium, 40 µM) was 93,8%, the “Lag Phase” value ([2]; complex medium, 120 µM) was 100,5% and the “Lag Phase” value ([2]; complex medium, 400 µM) was 118,1%. The “Lag Phase” value ([2]; minimal medium, 4 µM) was 100,0%, the “Lag Phase” value ([2]; minimal medium, 40 µM) was 97,3% and the “Lag Phase” value ([2]; minimal medium, 120 µM) was 107,7%. The “Lag Phase” value ([2]; minimal medium, 400 µM) was 139,3%.

With `O=C(/C=C/c1ccccc1)c1ccc(O)c(O)c1O` [Compound 10, 2′,3′,4′-Trihydroxychalcone] the Influence on plants [1] was “Yes”, the dry weight [1] was “significantly reduced” and the activity at 0.3 µM ([2]; ATCC13032, read-out: Final Backscatter, complex medium, 0.3 µM, relative to control) was 105%. It also gave an activity at 3 µM ([2]; ATCC13032, read-out: Final Backscatter, complex medium, 3 µM, relative to control) of 109%, an activity at 30 µM ([2]; ATCC13032, read-out: Final Backscatter, complex medium, 30 µM, relative to control) of 110% and an activity at 0.3 µM ([2]; ATCC13032, read-out: Final Backscatter, minimal medium, 0.3 µM, relative to control) of 103%. For the same molecule, the activity at 3 µM ([2]; ATCC13032, read-out: Final Backscatter, minimal medium, 3 µM, relative to control) was 104%, the activity at 30 µM ([2]; ATCC13032, read-out: Final Backscatter, minimal medium, 30 µM, relative to control) was 104% and the activity at 0.3 µM ([2]; ATCC13032, read-out: Growth rate, complex medium, 0.3 µM, relative to control) was 106%. It also gave an activity at 3 µM ([2]; ATCC13032, read-out: Growth rate, complex medium, 3 µM, relative to control) of 112%, an activity at 30 µM ([2]; ATCC13032, read-out: Growth rate, complex medium, 30 µM, relative to control) of 118% and an activity at 0.3 µM ([2]; ATCC13032, read-out: Growth rate, minimal medium, 0.3 µM, relative to control) of 104%. The activity at 3 µM ([2]; ATCC13032, read-out: Growth rate, minimal medium, 3 µM, relative to control) was 103%, the activity at 30 µM ([2]; ATCC13032, read-out: Growth rate, minimal medium, 30 µM, relative to control) was 99.3% and the “Lag Phase” value ([2]; complex medium, 0.3 µM) was 100,0%. For the same molecule, the “Lag Phase” value ([2]; complex medium, 3 µM) was 97,8%, the “Lag Phase” value ([2]; complex medium, 30 µM) was 94,9% and the “Lag Phase” value ([2]; minimal medium, 0.3 µM) was 97,9%. For the same molecule, the “Lag Phase” value ([2]; minimal medium, 3 µM) was 98,6% and the “Lag Phase” value ([2]; minimal medium, 30 µM) was 102,1%.

For `O=C(/C=C/c1ccc(O)c(O)c1)c1ccc(O)c(O)c1O` [Compound 12, 2′,3′,4′,3,4-Pentahydroxy-chalcone], the Influence on plants [1] was “Yes”, the dry weight [1] was “significantly reduced” and the activity at 0.1 µM ([2]; ATCC13032, complex medium, 0.1 µM, read-out: Final Backscatter) was 97%. It also gave an activity at 0.1 µM ([2]; ATCC13032, complex medium, 0.1 µM, read-out: Growth rate) of 108%, an activity at 1 µM ([2]; ATCC13032, complex medium, 1 µM, read-out: Final Backscatter) of 93.8% and an activity at 1 µM ([2]; ATCC13032, complex medium, 1 µM, read-out: Growth rate) of 132%. The activity at 10 µM ([2]; ATCC13032, complex medium, 10 µM, read-out: Final Backscatter) was 89.6%, the activity at 10 µM ([2]; ATCC13032, complex medium, 10 µM, read-out: Growth rate) was 144% and the activity at 0.1 µM ([2]; ATCC13032, minimal medium, 0.1 µM, read-out: Final Backscatter) was 99.6%. It also gave an activity at 0.1 µM ([2]; ATCC13032, minimal medium, 0.1 µM, read-out: Growth rate) of 102%, an activity at 1 µM ([2]; ATCC13032, minimal medium, 1 µM, read-out: Final Backscatter) of 97.6% and an activity at 1 µM ([2]; ATCC13032, minimal medium, 1 µM, read-out: Growth rate) of 102%. For the same molecule, the activity at 10 µM ([2]; ATCC13032, minimal medium, 10 µM, read-out: Final Backscatter) was 96.7%, the activity at 10 µM ([2]; ATCC13032, minimal medium, 10 µM, read-out: Growth rate) was 97.9% and the “Lag Phase” value ([2]; complex medium, 0.1 µM) was 96,4%. For the same molecule, the “Lag Phase” value ([2]; complex medium, 1 µM) was 84,1%, the “Lag Phase” value ([2]; complex medium, 10 µM) was 99,3% and the “Lag Phase” value ([2]; minimal medium, 0.1 µM) was 99,3%. The “Lag Phase” value ([2]; minimal medium, 1 µM) was 99,3% and the “Lag Phase” value ([2]; minimal medium, 10 µM) was 100,7%.

Source: paper PMC4893628, “Chalcone-based Selective Inhibitors of a C4 Plant Key Enzyme as Novel Potential Herbicides” (Scientific Reports, 2016)
